Source: US8586591B2, “Aminopyrazine derivative and medicine” (Nippon Shinyaku Co., Ltd., priority 2009, dated 2013)
Structures can show the parent of a compound that is named as a salt.

What was measured:
[1] = molecular target: T1, JAK2 tyrosine kinase (Homo sapiens, UniProt O60674); experiment: Test 1: inhibitory activity to JAK2 tyrosine kinase (ELISA); format: biochemical; settings: 25 μM ATP in substrate solution, 30° C. for 1 hour, n=2
T1 construct: purchased Carnabioscience Co
Description: Test 1: Test for inhibitory activity to JAK2 and JAK3 tyrosine kinase 1. Preparation of Test Material
The test material was dissolved in dimethylsulfoxide (DMSO) to be 10 mM, and further diluted with DMSO to be 100-fold concentrations for measurement (1000, 300, 100, 30, 10, 3, 1, 0.3, 0.1, 0.03, 0.01 μM). In addition, solutions diluted with an assay buffer up to 20 times were used as solutions of the test material. As a negative control, a solution of DMSO diluted 20 times with an assay buffer was used. As the assay buffer, 15 mM Tris-Cl (pH 7.5), 0.01 v/v % Tween-20, and 1 mM dithiothreitol were used.
2. Measurement of the Activities of JAK2 and JAK3 Tyrosine Kinases
The activity was determined by ELISA. The solution of the test material (10 μl each; n=2) was placed in a streptavidine-coated 96 well plate (DELFIA Strip Plate 8×12 wells; Perkin Elmer), to which 20 μl each of substrate solution (625 nM biotin-labeled peptide substrate, 25 μM ATP, 25 mM MgCl2, 15 mM Tris-Cl (pH 7.5), 0.01 v/v % Tween-20, and 1 mM dithiothreitol), was added and stirred. Finally, 20 μl each of JAK2 tyrosine kinase (Carnabioscience Co.) (diluted to 0.75 nM with assay buffer) or JAK3 tyrosine kinase (Carnabioscience Co.) (diluted to 0.75 nM with assay buffer) was added, stirred and allowed to stand at 30° C. for 1 hour. The plate was washed 4 times with a washing buffer (50 mM Tris-Cl, pH 7.5, 150 mM NaCl, 0.02 v/v % Tween-20), and then a blocking buffer (0.1% Bovine Serum Albumin, 50 mM Tris-Cl, pH 7.5, 150 mM NaCl, 0.02 v/v % Tween-20)(150 μl each) was added for blocking at 30° C. for 30 minutes. Blocking buffer was removed, and there was added 100 μl each of horse radish peroxidase-labeled anti-phosphorylated tyrosin kinase antibody (BD Bioscience Co.) (diluted 10,000 times with blocking buffer). The plate was incubated at 30° C. for 30 minutes and then washed 4 times with a washing buffer, and 100 μl each of 3,3′,5,5′-tetramethylbenzidine (Sigma-Aldrich Co.) was added to develop color for 10 minutes. 0.1 M sulfuric acid (100 μl each) was added to stop the reaction. The absorbance was measured by means of a micro-plate reader (BIO-RAD; Model 3550) at 450 nm.
3. Analysis of the Results of the Measurement
The measured absorbance was subjected to a non-linear regression analysis by means of a SAS system (SAS Institute Inc.), and the concentration (IC50) of the test material which inhibited 50% of the activity of each tyrosine kinase was estimated.

[2] = molecular target: T2, JAK3 tyrosine kinase (Homo sapiens, UniProt P52333); experiment: Test 1: inhibitory activity to JAK3 tyrosine kinase (ELISA); format: biochemical; settings: 25 μM ATP in substrate solution, 30° C. for 1 hour, n=2
T2 construct: purchased Carnabioscience Co
T2 sequence (P52333 1-1124): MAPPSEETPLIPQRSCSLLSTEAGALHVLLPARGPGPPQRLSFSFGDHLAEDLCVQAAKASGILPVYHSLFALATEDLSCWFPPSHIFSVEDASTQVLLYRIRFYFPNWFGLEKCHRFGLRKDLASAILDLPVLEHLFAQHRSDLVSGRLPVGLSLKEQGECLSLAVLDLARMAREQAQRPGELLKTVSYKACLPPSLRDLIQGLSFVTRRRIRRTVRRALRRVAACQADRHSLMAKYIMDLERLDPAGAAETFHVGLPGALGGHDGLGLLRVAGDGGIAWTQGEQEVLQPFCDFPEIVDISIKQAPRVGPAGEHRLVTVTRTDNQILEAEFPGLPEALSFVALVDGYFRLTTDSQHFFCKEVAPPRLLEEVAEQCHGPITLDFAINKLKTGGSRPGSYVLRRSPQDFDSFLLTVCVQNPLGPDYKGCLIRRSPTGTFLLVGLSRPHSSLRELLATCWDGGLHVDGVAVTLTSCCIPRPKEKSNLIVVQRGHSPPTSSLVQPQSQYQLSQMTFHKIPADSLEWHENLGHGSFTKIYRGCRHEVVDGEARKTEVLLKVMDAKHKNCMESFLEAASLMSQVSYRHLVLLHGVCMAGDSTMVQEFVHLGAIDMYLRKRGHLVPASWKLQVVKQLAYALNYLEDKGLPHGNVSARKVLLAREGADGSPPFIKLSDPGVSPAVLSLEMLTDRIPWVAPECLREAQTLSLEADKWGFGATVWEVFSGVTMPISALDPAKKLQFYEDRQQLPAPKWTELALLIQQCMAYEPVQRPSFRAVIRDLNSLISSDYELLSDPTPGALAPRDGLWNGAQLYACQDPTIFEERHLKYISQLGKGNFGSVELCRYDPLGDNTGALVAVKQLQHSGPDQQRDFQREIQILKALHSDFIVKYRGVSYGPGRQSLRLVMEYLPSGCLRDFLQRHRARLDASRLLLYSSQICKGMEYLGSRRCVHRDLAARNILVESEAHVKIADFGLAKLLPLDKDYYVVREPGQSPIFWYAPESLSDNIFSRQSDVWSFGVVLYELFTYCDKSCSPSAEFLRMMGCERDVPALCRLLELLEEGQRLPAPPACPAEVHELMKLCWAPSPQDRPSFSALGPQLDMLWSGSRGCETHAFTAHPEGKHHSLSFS
Description: Test 1: Test for inhibitory activity to JAK2 and JAK3 tyrosine kinase 1. […] The test material was dissolved in dimethylsulfoxide (DMSO) to be 10 mM, and further diluted with DMSO to be 100-fold concentrations for measurement (1000, 300, 100, 30, 10, 3, 1, 0.3, 0.1, 0.03, 0.01 μM). In addition, solutions diluted with an assay buffer up to 20 times were used as solutions of the test material. As a negative control, a solution of DMSO diluted 20 times with an assay buffer was used. […] 2. Measurement of the Activities of JAK2 and JAK3 Tyrosine Kinases The activity was determined by ELISA. […] The absorbance was measured by means of a micro-plate reader (BIO-RAD; Model 3550) at 450 nm. 3. Analysis of the Results of the Measurement The measured absorbance was subjected to a non-linear regression analysis by means of a SAS system (SAS Institute Inc.), and the concentration (IC50) of the test material which inhibited 50% of the activity of each tyrosine kinase was estimated.

T1 sequence (O60674 whole entry): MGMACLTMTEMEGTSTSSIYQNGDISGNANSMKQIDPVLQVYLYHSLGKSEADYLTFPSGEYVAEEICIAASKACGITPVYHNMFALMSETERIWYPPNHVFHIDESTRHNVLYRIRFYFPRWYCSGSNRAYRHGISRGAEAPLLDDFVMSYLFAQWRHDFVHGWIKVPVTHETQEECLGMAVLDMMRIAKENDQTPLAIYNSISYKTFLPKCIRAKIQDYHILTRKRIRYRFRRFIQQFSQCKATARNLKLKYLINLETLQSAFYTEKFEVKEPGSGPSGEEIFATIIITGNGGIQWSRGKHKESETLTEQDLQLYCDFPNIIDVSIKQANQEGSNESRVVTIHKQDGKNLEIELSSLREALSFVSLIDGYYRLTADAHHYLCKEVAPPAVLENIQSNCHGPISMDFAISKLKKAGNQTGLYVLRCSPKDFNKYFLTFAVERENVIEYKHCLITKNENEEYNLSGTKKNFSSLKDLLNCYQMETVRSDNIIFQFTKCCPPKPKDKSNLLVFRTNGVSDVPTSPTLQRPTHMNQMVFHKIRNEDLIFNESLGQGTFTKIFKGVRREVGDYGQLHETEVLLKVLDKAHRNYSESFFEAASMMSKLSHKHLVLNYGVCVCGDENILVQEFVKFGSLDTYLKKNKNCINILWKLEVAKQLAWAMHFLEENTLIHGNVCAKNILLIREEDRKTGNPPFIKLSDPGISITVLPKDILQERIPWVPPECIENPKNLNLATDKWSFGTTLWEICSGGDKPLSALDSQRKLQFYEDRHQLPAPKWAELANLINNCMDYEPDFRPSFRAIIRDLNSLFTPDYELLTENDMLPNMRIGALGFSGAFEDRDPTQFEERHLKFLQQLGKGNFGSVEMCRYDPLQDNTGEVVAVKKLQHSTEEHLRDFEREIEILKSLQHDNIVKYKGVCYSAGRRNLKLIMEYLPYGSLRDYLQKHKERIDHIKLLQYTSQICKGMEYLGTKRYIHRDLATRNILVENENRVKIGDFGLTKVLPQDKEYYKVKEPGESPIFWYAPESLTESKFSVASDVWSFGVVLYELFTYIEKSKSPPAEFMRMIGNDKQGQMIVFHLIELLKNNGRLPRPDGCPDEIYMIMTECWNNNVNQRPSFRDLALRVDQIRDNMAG

With `C[C@H](Nc1cc(-c2cnn(CC3CC3)c2)cc(Nc2cnccn2)n1)c1ccc(F)cc1` [Example 48, (S)-4-[1-(Cyclopropylmethyl)-1H-pyrazol-4-yl]-N^2-[1-(4-fluorophenyl)ethyl]-N^6-(pyrazin-2-yl)pyridine-2,6-diamine] the IC50 [1] was 6 nM and the IC50 [2] was 140 nM.
With `C[C@H](Nc1cc(-c2ccc(S(C)(=O)=O)cc2)cc(Nc2cnccn2)n1)c1ccc(F)cc1` [Example 36, (S)—N^2-[1-(4-Fluorophenyl)ethyl]-4-[4-(methylsulfonyl)phenyl]-N^6-(pyrazin-2-yl)pyridine-2,6-diamine hydrochloride] the IC50 [1] was 2.8 nM and the IC50 [2] was 200 nM.
`C[C@H](Nc1nc(NCCN(C)C)cc(Nc2cnccn2)n1)c1ccc(F)cc1` [Example 62, (S)—N^4-[2-(Dimethylamino)ethyl]-N^2-[1-(4-fluorophenyl)ethyl]-N^6-(pyrazin-2-yl)pyrimidine-2,4,6-triamine dihydrochloride] was tested, and the IC50 [1] was 2.2 nM and the IC50 [2] was 65 nM.
`C[C@H](Nc1nc(Nc2cnccn2)cc(N[C@H](CO)Cc2ccccc2)n1)c1ccc(F)cc1` [Example 87, (S)-2-{2-[(S)-1-(4-Fluorophenyl)ethylamino]-6-(pyrazin-2-ylamino)pyrimidin-4-ylamino}-3-phenylpropan-1-ol] showed an IC50 [1] of 14 nM and an IC50 [2] of 450 nM.
Work on `C[C@H](Nc1cc(-c2cnn(Cc3ccccc3)c2)cc(Nc2cnccn2)n1)c1ccc(F)cc1` [Example 113, (S)-4-(1-Benzyl-1H-pyrazol-4-yl)-N^2-[1-(4-fluorophenyl)ethyl]-N^6-(pyrazin-2-yl)pyridine-2,6-diamine] yielded an IC50 [1] of 4.9 nM and an IC50 [2] of 200 nM.
`C[C@H](Nc1nc(Nc2cnccn2)cc(N2CC(=O)NC(=O)C2)n1)c1ccc(F)cc1` [Example 17, (S)-4-{2-[1-(4-Fluorophenyl)ethylamino]-6-(pyrazin-2-ylamino)pyrimidin-4-yl}piperazine-2,6-dione] showed an IC50 [1] of 4.4 nM and an IC50 [2] of 340 nM.
In the case of `C[C@H](Nc1nc(Nc2cnccn2)cc(-c2ccoc2)n1)c1ccc(F)cc1` [Example 82, (S)—N^2-[1-(4-Fluorophenyl)ethyl]-6-(furan-3-yl)-N^4-(pyrazin-2-yl)pyrimidine-2,4-diamine hydrochloride], the IC50 [1] is reported as 1.7 nM and the IC50 [2] is reported as 99 nM.
`CC(C)C1(O)CN(c2cc(Nc3cnccn3)nc(N[C@@H](C)c3ccc(F)cc3)n2)C1` [Example 201, (S)-1-{2-[1-(4-Fluorophenyl)ethylamino]-6-(pyrazin-2-ylamino)pyrimidin-4-yl}-3-isopropylazetidin-3-ol hydrochloride] gave an IC50 [1] of 0.41 nM.
For `C[C@H](Nc1cc(C(=O)NC(C)(C)C)cc(Nc2cnccn2)n1)c1ccc(F)cc1` [Example 151, (S)—N-t-Butyl-2-[1-(4-fluorophenyl)ethylamino]-6-(pyrazin-2-ylamino)isonicotinamide], the IC50 [2] was 490 nM.
In the case of `C[C@H](Nc1cc(C(=O)N2CCN(S(C)(=O)=O)CC2)cc(Nc2cnccn2)n1)c1ccc(F)cc1` [Example 153, (S)-{2-[1-(4-Fluorophenyl)ethylamino]-6-(pyrazin-2-ylamino)pyridin-4-yl}[4-(methanesulfonyl)piperazin-1-yl]methanone], the IC50 [2] is reported as 300 nM.
For `C[C@H](Nc1cc(N2CCC(O)CC2)cc(Nc2cnccn2)n1)c1ccc(F)cc1` [Example 129, (S)-1-{2-[1-(4-Fluorophenyl)ethylamino]-6-(pyrazin-2-ylamino)pyridin-4-yl}piperidin-4-ol], the IC50 [2] was 380 nM.
In the case of `C[C@H](Nc1cc(-c2ncon2)cc(Nc2cnccn2)n1)c1ccc(F)cc1` [Example 147, (S)—N^2-[1-(4-Fluorophenyl)ethyl]-4-(1,2,4-oxadiazol-3-yl)-N^6-(pyrazin-2-yl)pyridine-2,6-diamine hydrochloride], the IC50 [2] is reported as 920 nM.
`C[C@H](Nc1cc(C(=O)N2CCCC2)cc(Nc2cnccn2)n1)c1ccc(F)cc1` [Example 154, (S)-{2-[1-(4-Fluorophenyl)ethylamino]-6-(pyrazin-2-ylamino)pyridin-4-yl}(pyrrolidin-1-yl)methanone] showed an IC50 [2] of 340 nM.
`C[C@H](Nc1nc(Nc2cnccn2)cc(N2CC(C(=O)N(C)C)C2)n1)c1ccc(F)cc1` [Example 176, (S)-1-{2-[1-(4-Fluorophenyl)ethylamino]-6-(pyrazin-2-ylamino)pyrimidin-4-yl}-N,N-dimethylazetidin-3-carboxamide] was tested, and the IC50 [1] was 0.96 nM.
In the case of `C[C@H](Nc1cc(C(N)=O)cc(Nc2cnccn2)n1)c1ccc(F)cc1` [Example 145, (S)-2-[1-(4-Fluorophenyl)ethylamino]-6-(pyrazin-2-ylamino)isonicotinamide], the IC50 [2] is reported as 36 nM.
`C[C@@H](c1ccc(F)cc1)N(C)c1cc(-c2cnn(C)c2)cc(Nc2cnccn2)n1` [Example 139, (S)—N^2-[1-(4-Fluorophenyl)ethyl]-N^2-methyl-4-(1-methyl-1H-pyrazol-4-yl)-N^6-(pyrazin-2-yl)pyridine-2,6-diamine hydrochloride] gave an IC50 [2] of 290 nM.
Work on `C[C@H](Nc1cc(C(=O)NCCN(C)C)cc(Nc2cnccn2)n1)c1ccc(F)cc1` [Example 150, (S)—N-[2-(Dimethylamino)ethyl]-2-[1-(4-fluorophenyl)ethylamino]-6-(pyrazin-2-ylamino)isonicotinamide] yielded an IC50 [2] of 150 nM.
Compound `Cc1cn(-c2cc(Nc3cnccn3)nc(N[C@@H](C)c3ccc(F)cc3)c2)cn1` [Example 136, (S)—N^2-[1-(4-Fluorophenyl)ethyl]-4-(4-methyl-1H-imidazol-1-yl)-N^6-(pyrazin-2-yl)pyridine-2,6-diamine dihydrochloride] has an IC50 [2] of 170 nM.
`C[C@H](Nc1cc(OCC2CC2)cc(Nc2cnccn2)n1)c1ccc(F)cc1` [Example 138, (S)-4-(Cyclopropylmethoxy)-N^2-[1-(4-fluorophenyl)ethyl]-N^6-(pyrazin-2-yl)pyridine-2,6-diamine] showed an IC50 [2] of 420 nM.
